Experimental findings from paper PMC10914316 (Biochemistry, 2023) are described below.

Test [1] concerns the target T1, ArnA_DH (Escherichia coli, UniProt P77398). As to conditions: for Tm (melting temperature of ArnA_DH with ligand): no ligand Tm = 318.4 ± 0.03 K.
Test [2] has as its target T2, ArnA_DH_N492A (Escherichia coli, UniProt P77398, N492A).
T2 sequence (P77398 314-660 N492A): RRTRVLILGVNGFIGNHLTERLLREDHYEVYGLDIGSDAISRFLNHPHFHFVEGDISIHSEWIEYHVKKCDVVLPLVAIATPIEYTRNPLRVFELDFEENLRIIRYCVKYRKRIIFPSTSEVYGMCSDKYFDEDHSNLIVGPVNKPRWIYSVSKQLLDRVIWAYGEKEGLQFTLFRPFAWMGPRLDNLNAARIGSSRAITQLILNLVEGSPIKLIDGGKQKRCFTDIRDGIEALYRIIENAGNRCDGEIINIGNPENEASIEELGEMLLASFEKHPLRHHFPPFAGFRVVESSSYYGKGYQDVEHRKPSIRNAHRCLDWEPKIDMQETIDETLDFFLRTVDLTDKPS
In words: NADH binding. In kind it is biochemical. Particulars: concentrations as high as 10 mM.

Test [3] addresses T2, ArnA_DH_N492A. In words: Thermal stability shift assay for ligand binding to N492A mutant.
Test [4] addresses T1, ArnA_DH. Briefly: biochemical.

Broadly, the Kd is the constant that tells how readily two partners part at equilibrium.

Structures are written as SMILES. Read-outs that look alike come from different tables or passages of the source.

Consider `O=C(O)[C@H]1O[C@H](OP(=O)(O)O)[C@H](O)[C@@H](O)[C@@H]1O` [GlcA-1P, glucuronic acid-1-phosphate], for which the “ligand binding by thermal stability shift assay” value in test [1] (1 mM and 10 mM ligand) is “undetectable”. The “Tm (melting temperature of ArnA_DH with ligand)” value in test [1] (1 mM ligand) worked out at 318.9 ± 0.02 K; in test [1] (10 mM ligand) it was 318.4 ± 0.03 K.
For `O=C(O)[C@H]1O[C@H](OP(=O)(O)OP(=O)(O)OC[C@H]2O[C@@H](n3ccc(=O)[nH]c3=O)[C@H](O)[C@@H]2O)[C@H](O)[C@@H](O)[C@@H]1O` [UDP-GlcA, UDP-glucuronic acid], in test [2], the “UDP-GlcA-induced conformational change of ArnA_DH_N492A (intrinsic NADH fluorescence)” value is “little change in the intrinsic NADH fluorescence”. In addition, the equilibrium dissociation constant (Kd) in test [3] stood at 36 ± 7 µM; in test [4], 22 ± 5 µM.
Regarding `O=c1ccn([C@@H]2O[C@H](COP(=O)(O)OP(=O)(O)O[C@H]3OC[C@@H](O)[C@H](O)[C@H]3O)[C@@H](O)[C@H]2O)c(=O)[nH]1` [UDP-xylose], in test [1] (1 mM ligand), the “Tm (melting temperature of ArnA_DH with ligand)” value worked out at 320.0 ± 0.03 K. This molecule yielded an equilibrium dissociation constant (Kd) in test [4] of 633 ± 116 µM.
For `O=c1ccn([C@@H]2O[C@H](COP(=O)(O)O)[C@@H](O)[C@H]2O)c(=O)[nH]1` [UMP, uridine monophosphate], in that order: 320.6 ± 0.02 K and 594 ± 135 µM.
